ChEMBL document CHEMBL3882724 (2013)

Legend:
[1] = target: T1, Steroid 17-alpha-hydroxylase/17,20 lyase (Homo sapiens, UniProt P05093); assay: Inhibition of CYP17 in human H295R cells assessed as decrease in testosterone levels after 24 hrs by ELISA; type: cell-based
T1 sequence (P05093 whole entry): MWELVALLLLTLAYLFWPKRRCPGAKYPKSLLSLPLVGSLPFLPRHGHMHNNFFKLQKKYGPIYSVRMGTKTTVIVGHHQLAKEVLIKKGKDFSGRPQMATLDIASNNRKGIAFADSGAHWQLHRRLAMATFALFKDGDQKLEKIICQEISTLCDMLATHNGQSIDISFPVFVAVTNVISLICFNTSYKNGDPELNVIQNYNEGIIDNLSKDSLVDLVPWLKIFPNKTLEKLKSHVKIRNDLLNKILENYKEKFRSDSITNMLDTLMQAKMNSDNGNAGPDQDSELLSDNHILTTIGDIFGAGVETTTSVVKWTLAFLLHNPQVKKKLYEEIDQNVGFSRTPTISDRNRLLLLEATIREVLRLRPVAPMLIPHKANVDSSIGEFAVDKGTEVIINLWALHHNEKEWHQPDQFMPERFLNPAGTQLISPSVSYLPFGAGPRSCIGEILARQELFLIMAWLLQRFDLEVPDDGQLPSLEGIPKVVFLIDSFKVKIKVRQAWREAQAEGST

[2] = target: T2, CYP21 (steroid 21-hydroxylase) (Homo sapiens, UniProt P08686); assay: Inhibition of human CYP21 transfected in HEK293 cells assessed as decrease in conversion of progesterone to 11-deoxycorticosterone preincubated for 5 hrs followed by progesterone addition measured after 20 hrs by ELISA; type: cell-based; parameters: concentration or dose not given beside the values; details: HEK293 cells transfected with human CYP21, probe progesterone
T2 sequence (P08686 whole entry): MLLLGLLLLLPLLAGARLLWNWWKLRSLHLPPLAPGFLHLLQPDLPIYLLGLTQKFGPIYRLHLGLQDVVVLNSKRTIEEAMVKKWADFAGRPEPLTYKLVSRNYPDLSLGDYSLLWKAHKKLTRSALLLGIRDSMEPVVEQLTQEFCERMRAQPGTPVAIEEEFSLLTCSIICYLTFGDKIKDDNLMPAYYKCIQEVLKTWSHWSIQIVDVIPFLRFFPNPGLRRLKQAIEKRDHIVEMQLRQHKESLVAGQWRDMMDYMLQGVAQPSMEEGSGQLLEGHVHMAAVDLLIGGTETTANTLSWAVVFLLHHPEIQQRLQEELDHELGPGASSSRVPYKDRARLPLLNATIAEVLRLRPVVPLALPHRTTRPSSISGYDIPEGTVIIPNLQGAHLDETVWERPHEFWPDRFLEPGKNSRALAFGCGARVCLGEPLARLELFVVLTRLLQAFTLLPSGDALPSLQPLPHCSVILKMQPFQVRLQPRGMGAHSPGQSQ

[3] = Half life in human liver microsomes at 1 uM by LC-MS/MS analysis
[4] = target: T1, Steroid 17-alpha-hydroxylase/17,20 lyase; assay: Inhibition of CYP17 in human testicular microsomes using 17alpha-hydroxypregnenolone as substrate assessed as decrease in DHEA levels after 90 mins by ELISA; parameters: species or system Testis
[5] = target: T1, Steroid 17-alpha-hydroxylase/17,20 lyase; assay: Inhibition of CYP17 in human testicular microsomes using 17alpha-hydroxypregnenolone as substrate assessed as decrease in DHEA levels at 1 nM after 90 mins by ELISA relative to control; parameters: species or system Testis
CYP11B = target: T3, CYP11B (Rattus norvegicus, UniProt P15393+P30099); assay: Inhibition of Sprague-Dawley rat adrenal mitochondrial CYP11B assessed as decrease in conversion of 11-deoxycortisol to cortisol at 100 nM incubated for 60 mins by ELISA relative to control; type: protein assay; details: adrenal mitochondria, probe 11-deoxycortisol
T3 sequence (P30099 whole entry): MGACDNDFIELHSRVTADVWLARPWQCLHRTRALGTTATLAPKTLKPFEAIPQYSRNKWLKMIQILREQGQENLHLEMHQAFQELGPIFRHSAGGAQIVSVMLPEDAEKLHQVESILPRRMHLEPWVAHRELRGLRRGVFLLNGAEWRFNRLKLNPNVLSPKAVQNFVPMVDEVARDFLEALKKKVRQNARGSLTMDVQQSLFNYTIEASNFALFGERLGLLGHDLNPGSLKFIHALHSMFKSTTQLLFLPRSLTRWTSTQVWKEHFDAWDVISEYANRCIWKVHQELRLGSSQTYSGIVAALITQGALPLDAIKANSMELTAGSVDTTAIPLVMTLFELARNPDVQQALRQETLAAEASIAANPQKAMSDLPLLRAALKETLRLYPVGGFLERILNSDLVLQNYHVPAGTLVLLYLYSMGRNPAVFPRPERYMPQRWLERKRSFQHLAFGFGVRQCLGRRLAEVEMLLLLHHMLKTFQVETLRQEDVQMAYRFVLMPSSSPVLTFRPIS
T3 sequence (P15393 whole entry): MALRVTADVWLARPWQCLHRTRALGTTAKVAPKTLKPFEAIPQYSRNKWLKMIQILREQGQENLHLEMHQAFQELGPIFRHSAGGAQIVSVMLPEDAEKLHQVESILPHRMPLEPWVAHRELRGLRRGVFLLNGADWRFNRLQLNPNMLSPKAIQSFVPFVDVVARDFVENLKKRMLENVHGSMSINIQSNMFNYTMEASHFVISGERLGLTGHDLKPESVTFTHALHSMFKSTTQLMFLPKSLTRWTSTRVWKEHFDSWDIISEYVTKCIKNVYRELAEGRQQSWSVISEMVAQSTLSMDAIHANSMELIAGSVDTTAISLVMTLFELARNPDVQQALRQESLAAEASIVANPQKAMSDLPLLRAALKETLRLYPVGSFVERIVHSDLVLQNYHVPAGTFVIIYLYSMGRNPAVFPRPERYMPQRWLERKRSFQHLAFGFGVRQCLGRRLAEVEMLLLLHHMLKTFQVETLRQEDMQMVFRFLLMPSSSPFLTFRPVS

[6] = target: T1, Steroid 17-alpha-hydroxylase/17,20 lyase; assay: Inhibition of CYP17 in human testicular microsomes using 17alpha-hydroxypregnenolone as substrate assessed as decrease in DHEA levels at 10 nM after 90 mins by ELISA relative to control; parameters: species or system Testis; details: 1.5 h

SMILES | IC50 [1] [nM] | inhibition at 20 h [2] [%] | half-life at 1 µM [3] [min] | IC50 [4] [nM] | IC50 [5] [nM] | inhibition at 1 h, 0.1 µM (CYP11B) [%] | inhibition at 0.01 µM [6] [%]
C[C@]12C=CC(=O)C=C1C1(CC1)C[C@@H]1[C@@H]2CC[C@]2(C)C(c3cccnc3)=CC[C@@H]12 | ≤ 15 | 10 to 50 | 1 to 50 | ≤ 11 | ≤ 10 | – | –
CC1C[C@H]2C3=CC=C(c4cncc(F)c4)[C@@]3(C)CC[C@@H]2[C@@]2(C)CCC(=O)C=C12 (some centres undefined) | ≤ 15 | 10 to 50 | 1 to 50 | – | ≤ 10 | – | –
C[C@]12CC[C@H]3[C@@H](CCC4=CC(=O)CC[C@@]43C)C1=CC=C2c1cncnc1 | – | ≥ 50 | 1 to 50 | ≤ 11 | 10 to 100 | – | –
CCOc1cncc(C2=CC[C@H]3[C@@H]4CC=C5N(C)C(=O)C[C@]5(C)[C@H]4CC[C@]23C)c1 | – | 10 to 50 | – | – | – | ≥ 50 | –
CC(=O)N[C@@H]1CC[C@@]2(C)C(=CC[C@H]3C4=CC=C(n5ccnc5)[C@@]4(C)CC[C@@H]32)C1 | – | 10 to 50 | – | – | – | < 32 | –
CCC1C[C@H]2C3=CC=C(c4cccnc4)[C@@]3(C)CC[C@@H]2[C@@]2(C)CCC(=O)C=C12 (some centres undefined) | – | 10 to 50 | 1 to 50 | ≤ 11 | 10 to 100 | – | –
C[C@]12CC[C@H]3[C@@H](CCC4=CC(=O)C=C[C@@]43C)C1=CC=C2c1cccnc1 | ≤ 15 | ≥ 50 | 1 to 50 | ≤ 11 | 10 to 100 | – | –
C[C@]12CCC(=O)C=C1C1(CC1)C[C@@H]1[C@@H]2CC[C@]2(C)C(c3cccnc3)=CC[C@@H]12 | ≤ 15 | ≥ 50 | 1 to 50 | ≤ 11 | ≤ 10 | – | –
CN1C(=O)CC[C@@]2(C)C1=CC[C@@H]1[C@@H]2CC[C@]2(C)C(c3cncc(F)c3)=CC[C@@H]12 | – | 10 to 50 | – | – | – | ≥ 50 | –
C[C@]12CC[C@H]3[C@@H](CCC4=CC(=O)CC[C@@]43C)C1=CC=C2c1cncc(F)c1 | ≤ 15 | ≥ 50 | 1 to 50 | ≤ 11 | 10 to 100 | – | –
CC1C[C@@H]2[C@H](CC[C@]3(C)C(c4cccnc4)=CC[C@@H]23)[C@@]2(C)C=CC(=O)C=C12 (some centres undefined) | ≤ 15 | ≥ 50 | 1 to 50 | – | ≤ 10 | – | –
C[C@]12CCNC(=O)C=C1C1(CC1)C[C@@H]1[C@@H]2CC[C@]2(C)C(c3cccnc3)=CC[C@@H]12 | ≤ 15 | 10 to 50 | 1 to 50 | ≤ 11 | ≤ 10 | – | –
C=C1C[C@@H]2[C@H](CC[C@]3(C)C(c4cncc(F)c4)=CC[C@@H]23)[C@@]2(C)C=CC(=O)C=C12 | ≤ 15 | – | 1 to 50 | ≤ 11 | > 100 | – | –
C[C@]12CCNC(=O)C=C1C1CC1[C@@H]1[C@@H]2CC[C@]2(C)C(c3cccnc3)=CC[C@@H]12 (some centres undefined) | – | ≥ 50 | 1 to 50 | ≤ 11 | > 100 | – | –
C=C1CC2[C@H](CC[C@]3(C)C(c4cccnc4)=CC[C@@H]23)C2(C)C=CC(=O)C=C12 (single isomer, unassigned) | ≤ 15 | ≥ 50 | 1 to 50 | ≤ 11 | ≤ 10 | – | –
C[C@]12CC[C@H]3[C@@H](CC=C4C[C@H](NC(=O)C5CC5)CC[C@@]43C)C1=CC=C2n1ccnc1 | – | 10 to 50 | – | – | – | ≥ 50 | –
CC(=O)N1CCC[C@@]2(C)[C@@H](CC[C@@H]3[C@@H]2CC[C@]2(C)C(n4ccnc4)=CC[C@@H]32)C1 | – | 10 to 50 | – | – | – | ≥ 50 | –
CC1C[C@@H]2[C@H](CC[C@]3(C)C(c4cccnc4)=CC[C@@H]23)[C@@]2(C)CCC(=O)C=C12 (some centres undefined) | ≤ 15 | ≥ 50 | 1 to 50 | ≤ 11 | 10 to 100 | – | –
Cc1cncc(C2=CC[C@H]3[C@@H]4CC=C5N(C)C(=O)C[C@]5(C)[C@H]4CC[C@]23C)c1 | – | 10 to 50 | – | – | – | < 32 | –
C[C@]12CC[C@H](O)CC1=CC[C@@H]1[C@@H]2CC[C@]2(C)C(n3cncc3C#N)=CC[C@@H]12 | – | 10 to 50 | – | – | – | ≥ 50 | –
C[C@]12CC[C@H]3[C@@H](CCC4=CC(=O)NCC[C@@]43C)C1=CC=C2c1cncc(F)c1 | ≤ 15 | 10 to 50 | 1 to 50 | – | > 100 | – | –
C[C@]12CCCN(S(C)(=O)=O)CC1CC[C@@H]1[C@@H]2CC[C@]2(C)C(n3ccnc3)=CC[C@@H]12 (some centres undefined) | – | – | – | – | – | ≥ 50 | –
CC1C[C@@H]2[C@H](CC[C@]3(C)C(c4cccnc4)CC[C@@H]23)[C@@]2(C)C=CC(=O)C=C12 (some centres undefined) | – | – | 1 to 50 | ≤ 111 | ≤ 10 | – | –
CN1C(=O)C[C@@]2(C)C1=CC[C@@H]1[C@@H]2CC[C@]2(C)C(n3ccnc3)=CC[C@@H]12 | – | 10 to 50 | – | – | – | ≥ 50 | –
CC1C[C@H]2C3=CC=C(c4cccnc4)[C@@]3(C)CC[C@@H]2[C@@]2(C)CCC(=O)C=C12 (some centres undefined) | – | ≥ 50 | 1 to 50 | ≤ 11 | ≤ 10 | – | –
C[C@]12CC[C@H]3[C@@H](C=CC4=CC(=O)CC[C@@]43C)C1=CC=C2c1cccnc1 | – | ≥ 50 | 1 to 50 | ≤ 11 | 10 to 100 | – | –
CC1C[C@@H]2[C@H](CC[C@]3(C)C(c4cncc(F)c4)=CC[C@@H]23)[C@@]2(C)CCC(=O)C=C12 (some centres undefined) | ≤ 15 | ≥ 50 | – | ≤ 11 | > 100 | – | –
CC1C[C@H]2C3=CC=C(c4cccnc4)[C@@]3(C)CC[C@@H]2[C@@]2(C)C=CC(=O)C=C12 (some centres undefined) | – | ≥ 50 | 1 to 50 | – | ≤ 10 | – | ≥ 80
C=C1C[C@@H]2[C@H](CC[C@]3(C)C(c4cccnc4)=CC[C@@H]23)[C@@]2(C)CCC(=O)C=C12 | ≤ 15 | ≥ 50 | 1 to 50 | ≤ 11 | 10 to 100 | – | –
